Source: US20260263497A1, “METHOD OF TREATING SCHIZOPHRENIA AND COMPOSITION FOR USE THEREIN” (Academia Sinica, priority 2022, published 2026)

Assays:
Assay type in all cases: in vivo, mice (C57BL/6)
[1] = test system: METH-induced hyperlocomotion in METH-naïve wild-type mice; test: METH-induced hyperlocomotor activity (METH-induced behavioral sensitization, open field); settings: for effect on METH-induced hyperlocomotion activity, total travelled distance: i.p. co-injection 0.3, 1, 3 mg/kg with METH 2 mg/kg, 60 minutes, FIG. 2
Method: (§1) Animals: Male mice (C57BL/6; 2-3 months) were purchased from and maintained in the animal facility of National Taiwan University (Taipei, Taiwan) under standard condition with a 12-hr light/12-hr dark cycle. All animal experimental procedures were performed in accordance with the guidelines established by the Institutional Animal Care and Use Committee (IACUC) of the National Taiwan University and Institute of Biomedical Sciences (IBMS) at Academia Sinica (Taipei, Taiwan).
(§2) The locomotor activity: The locomotor activity was monitored and recorded using SMART 3.0 video tracking software (Panlab Harvard Apparatus, Barcelona, Spain) for 1 hour following the manufacture's protocol.
Methamphetamine (METH) is a dopamine enhancer that elevates synaptic dopamine in the brain and is frequently used to induce schizophrenia-like behaviors in mice.^6 Thus, METH-induced psychosis mice was used to evaluate the in vivo efficacy of JMF3464.
Male METH-naïve wild-type (WT) mice (3-6 months old) received intraperitoneal co-injections of JMF3464 (0.3, 1, or 3 mg/kg) and METH (2 mg/kg) immediately after establishing a 20-minute baseline for locomotor activity. The locomotor activity was recorded for 60 minutes after injection. A saline+vehicle group and a METH+vehicle group are used as control groups. In addition, under the same experimental conditions as JMF3464, the compound CGS21680 (A2A receptor agonist) with potential for treating schizophrenia was used as a comparison. The resulted data was expressed and analyzed as one-way ANOVA of total travelled distance (see FIG. 2) and two-way ANOVA of distance by 5-minute time bin (see FIGS. 3A and 3B) and.
Animals: Male mice (C57BL/6; 2-3 months) were purchased from and maintained in the animal facility of National Taiwan University (Taipei, Taiwan) under standard condition with a 12-hr light/12-hr dark cycle. All animal experimental procedures were performed in accordance with the guidelines established by the IACUC of the National Taiwan University and IBMS at Academia Sinica (Taipei, Taiwan).
Male METH-naïve wild-type (WT) mice (3-6 months old) received intraperitoneal co-injections of JMF1907 (1 mg/kg) and METH (2 mg/kg) immediately after establishing a 20-minute baseline for locomotor activity. The locomotor activity was recorded for 60 minutes after injection. In this study, a saline+vehicle (5% DMSO) group and a METH+vehicle (5% DMSO) group are used as control groups. In addition, the compound JMF3464 described above, and the compound S-(4-Nitrobenzyl)-6-thioinosine (NBTI), known as an inhibitor of equilibrative nucleoside transporter 1 (ENTi) transporter, are used as comparative examples with the same experimental conditions as JMF1907. The resulted data was expressed and analyzed as one-way ANOVA of total travelled distance (see FIG. 5) and two-way ANOVA of distance by 5-minute time bin (see FIG. 6).

[2] = test system: locomotor activity of drug-naïve WT mice; test: Effect of JMF3464 alone on locomotor activity; settings: single i.p. injection 0.3, 0.5, 1, 3 mg/kg
Method: as §1, §2
Male drug-naïve WT mice (3-6 months old) received a single dose JMF3464 injection (0.3, 0.5, 1, and 3 mg/kg, respectively) via intraperitoneal injection and the locomotor activity was recorded immediately after injection. A vehicle group is used as control group. The data were expressed and analyzed as one-way ANOVA of total travelled distance for 60 minutes (see FIG. 1A) and two-way ANOVA of distance by 5-minute time bin (see FIG. 1B).

METH-induced CPP in mice = test: METH-induced conditioned place preference (CPP)
Method: as §1
The METH-induced conditioned place preference (CPP) task is further performed to examine the therapeutic effect of JMF3464 on METH-induced addiction.
The METH-induced CPP procedure is shown as follows. The conditioned place preference (CPP) paradigm is a standard preclinical behavioral model used to study the rewarding and aversive effects of drugs. The paradigm usually uses a two-compartment apparatus with each compartment displaying distinct contextual characteristics (e.g., wall colors/patterns and floor texture). The CPP model consisted of three phases: pre-conditioning (baseline), conditioning, and post-conditioning (i.e., CPP test). […] Lastly, one day after the conditioning sessions, mice underwent a CPP test where they were again given free access to all compartments for 15 minutes and the time spent in the METH-paired side was measured, which provided a measure of CPP expression.

SMILES: CCNC(=O)[C@H]1O[C@@H](n2cnc3c(N)nc(NCCc4ccc(CCC(=O)O)cc4)nc32)[C@H](O)[C@@H]1O [CGS21680, reference compound]
- effect on METH-induced hyperlocomotion activity, total travelled distance [1]: dose-dependently suppressed

SMILES: OC[C@H]1O[C@@H](n2cnc3c(NCCc4c[nH]c5ccccc45)ncnc32)C(O)C1O (some centres unmarked) [JMF1907]
- improvement of METH-induced hyperactive behavior, five-minute intervals ([1]; 1 mg/kg i.p. co-injection with METH 2 mg/kg, open field 60 minutes, FIG. 6): comparable to the control group
- effect on METH-induced hyperactive behavior, overall locomotion ([1]; 1 mg/kg i.p. co-injection with METH 2 mg/kg, open field 60 minutes, vehicle 5% DMSO, compared to JMF3464 and NBTI, FIG. 5): significantly improves

SMILES: OC[C@H]1O[C@@H](n2cnc3c(NCc4ccc(Br)s4)ncnc32)[C@H](O)[C@@H]1O [JMF3464, N6-[(5-bromothien-2-yl)methyl]adenosine]
- effect on locomotor activity ([2]; 60 minutes): dose-dependent effect
- reduction of total locomotor activity ([2]; total travelled distance 60 minutes, vs vehicle): ~ 20%
- inhibitory effect on METH-induced CPP (METH-induced CPP in mice; 1 mg/kg i.p. 10 minutes before each METH conditioning session, FIG. 4A): neither 1 mg/kg nor 3 mg/kg of JMF3464 exerted inhibitory effect
- inhibitory effect on METH-induced CPP (METH-induced CPP in mice; 3 mg/kg i.p. 10 minutes before each METH conditioning session, FIG. 4B): neither 1 mg/kg nor 3 mg/kg of JMF3464 exerted inhibitory effect
- effect on METH-induced locomotion activity, 5-minute time bins ([1]; 3 mg/kg i.p. co-injection with METH 2 mg/kg, vs METH+vehicle, FIGS. 3A, 3B): significantly lowered
- effect on METH-induced hyperlocomotion activity, total travelled distance [1]: dose-dependently suppressed
- effect on METH-induced behavioral sensitization after repeated use ([1]; repeated use, no further conditions given): no effect

SMILES: CN[C@@H](C)Cc1ccccc1 [METH, Methamphetamine]
- hyperlocomotion induced by METH ([1]; METH 2 mg/kg i.p. + vehicle vs saline+vehicle, total travelled distance 60 minutes): approximately 200%
